We go through one compound from patent US20100317831A1, “PROBE COMPOUNDS FOR PROTEIN TYROSINE PHOSPHATASE (PTP) AND PRECURSORS THEREOF” (NATIONAL TAIWAN UNIVERSITY, priority 2009, published 2010).

Molecules are shown by their SMILES.

For this experiment, the target named is T1, PTP1B (Homo sapiens, UniProt P18031).
T1 sequence (P18031 1-435): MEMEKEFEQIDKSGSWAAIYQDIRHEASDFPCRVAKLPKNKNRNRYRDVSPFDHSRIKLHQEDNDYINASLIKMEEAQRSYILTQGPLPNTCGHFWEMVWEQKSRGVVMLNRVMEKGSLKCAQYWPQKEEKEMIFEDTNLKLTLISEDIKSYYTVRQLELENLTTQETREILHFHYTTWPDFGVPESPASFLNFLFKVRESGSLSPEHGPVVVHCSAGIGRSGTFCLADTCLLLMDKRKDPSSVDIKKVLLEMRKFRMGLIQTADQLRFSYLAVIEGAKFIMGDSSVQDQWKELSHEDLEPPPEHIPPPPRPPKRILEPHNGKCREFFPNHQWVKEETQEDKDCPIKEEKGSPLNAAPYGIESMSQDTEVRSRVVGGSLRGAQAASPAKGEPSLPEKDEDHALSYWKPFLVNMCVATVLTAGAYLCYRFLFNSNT
The experiment in a line: PTP1B labeling by probe compound (streptavidin immunoblot). The experiment is classed as biochemical. An excerpt:
FIG. 1b was visualized by immunoblotting analysis (streptavidin) after transferring the reaction products onto a nitrocellulose membrane. […] Since the probe compounds themselves are also the substrates of the corresponding PTPs, the results clearly indicate that the newly developed latent trapping unit well mimics the phosphorotyrosine residue of the natural substrate. […] In the absence of PTPs, they underwent hydrolysis slowly and the purity remained greater than 90% even after 1 hr (as determined by HPLC).
To test if probe compounds 30a-c could differentiate PTPs from other phosphatases, we conducted labeling experiments on nine phosphatases, including five PTPs, alkaline phosphatase (ALP), PTEN (dephosphorylating the phosphatidylinositol 3,4,5-trisphosphate), and two serine/threonine phosphatases (PPP1CA and PPM1A).
In order to further study how well probe compounds 30a-c could differentiate between the various PTPs, we compared the labeling intensities on five PTPs (PTP1B, SHP2, TCPTP, VHR, and PTPPEST) with those obtained from probe 1 (LCL2). When the intensities of the probe compounds 30a-c-labeled bands in each set of experiments were normalized relative to that of a probe 1-labeled band, we were able to establish a quantitative comparison of their labeling preference (as shown in FIGS. 4a to 4e). […] Of the five PTPs tested, the substrate specificities of PTP1B, TCPTP, and SHP2 were better studied than those of VHR and PTP-PEST. […] The trend of substrate preference obtained from this study was similar to those determined by other methods. We have also compared the labeling intensity data for the other two PTPs, VHR (a dual-specificity phosphatase) and PTP-PEST (a classical PTP). […] This provides evidence to support the concept that probe compounds with added amino acid residues flanking the latent trapping device were able to influence their target specificities.

Take `CC(C)CC(NC(=O)C(Cc1ccc(OP(=O)(O)O)c(CF)c1)NC(=O)C(CCC(=O)O)NC(=O)CCC(=O)NCCOCCOCCNC(=O)CCCCC1SC[C@H]2NC(=O)N[C@@H]12)C(N)=O` (stereo partly drawn) [compound 30b]: under “Na3VO4 present in the incubation mixture”, the “biotinylated adduct (labeling of PTP1B) with phosphatase inhibitor present” value is recorded as “no biotinylated adduct was observed”. Besides, the “activity dependence of labeling of PTPs” value (PTP1B and TCPTP, conclusion from Na3VO4 control) is listed as “activity dependent”. Also, the “biotinylated protein bands (labeling of PTP1B)” value (immunoblotting analysis (streptavidin), FIG. 1b) is on record as “Intense biotinylated protein bands were observed”.
